Experiments:
[1] = Stability of Al^18F(IMP485)/IMP487 in human serum at 37° C.; format: in vitro ADME; conditions: four hours
Experimental: A kit containing 40 nmol of IMP485 or IMP487, 20 nmol AlCl3, 0.1 mg ascorbic acid and 0.1 g trehalose adjusted to pH 3.9 was reconstituted with purified ^18F^− in 200 μL saline and heated 106° C. for 15 min. The reaction mixture was then diluted with 800 μL water and placed on an HLB column. […] The radiolabeled peptide in […] was mixed with 250 μL of fresh human serum in a vial and incubated at 37° C.
The purified radiolabeled peptide in 50 μL 1:1 EtOH/H2O was mixed with 150 μL of human serum and placed in the HPLC autosampler heated to 37° C. and analyzed by RP-HPLC.

[2] = Biodistribution of Al^18F(IMP485) alone or TF2 pretargeted; conditions: mouse, in vivo, iv
Experimental: Mice were necropsied at 1 and 3 h post injection, 7 mice per time point.
Biodistribution studies were performed in Taconic nude mice bearing subcutaneous LS174T tumor xenografts.
Mice were necropsied at 1 and 3 h post injection, 6 mice per time point.

[3] = Taconic nude, % ID/org Lg. Int.
[4] = Taconic nude, % ID/org Sm. Int.
[5] = nude (Taconic), 28 uCi, total radioactivity, % ID/g Lung

Structure (SMILES): NC(=O)[C@@H](CCCCNC(=O)CNC(=O)CCC(=O)NCCc1c[nH]cn1)NC(=O)[C@@H](Cc1ccc(O)cc1)NC(=O)[C@@H](CCCCNC(=O)CNC(=O)CCC(=O)NCCc1c[nH]cn1)NC(=O)Cc1ccc(CN2CCN(CC(=O)O)CCN(CC(=O)O)CC2)cc1 [Al^18F(IMP485)]
- stability in human serum [1]: stable
- tissue uptake at 3 h ([2]; Taconic nude): 0.353 %ID/g
- tissue uptake at 3 h ([2]; Taconic nude, % ID/g Blood): 0.023 %ID/g
- tissue uptake at 1 h ([2]; Taconic nude, % ID/g Kidney): 3.19 %ID/g
- tissue uptake at 1 h ([2]; Taconic nude, % ID/g Lg. Int.): 0.104 %ID/g
- tissue uptake at 3 h ([2]; Taconic nude, % ID/g Lg. Int.): 0.35 ± 0.16 %ID/g
- tissue uptake at 1 h ([2]; Taconic nude, % ID/g Liver): 0.237 %ID/g
- tissue uptake at 3 h ([2]; Taconic nude, % ID/g Lung): 0.244 %ID/g
- tissue uptake at 1 h ([2]; Taconic nude, % ID/g Muscle): 0.136 %ID/g
- tissue uptake at 3 h ([2]; Taconic nude, % ID/g Muscle): 0.025 %ID/g
- tissue uptake at 1 h ([2]; Taconic nude, % ID/g Scapula): 0.5 %ID/g
- tissue uptake at 3 h ([2]; Taconic nude, % ID/g Sm. Int.): 0.071 %ID/g
- tissue uptake at 1 h ([2]; Taconic nude, % ID/g Spleen): 0.254 %ID/g
- tissue uptake at 3 h ([2]; Taconic nude, % ID/g Stomach): 0.025 %ID/g
- tissue uptake at 1 h ([2]; Taconic nude, % ID/g Tumor): 28.1 %ID/g
- tissue uptake dose at 3 h ([2]; Taconic nude, % ID/org Blood): 0.037 %ID
- tissue uptake dose at 1 h ([2]; Taconic nude, % ID/org Kidney): 0.444 %ID
- tissue uptake dose at 1 h [2, 3]: 0.055 %ID
- tissue uptake dose at 3 h [2, 3]: 0.206 %ID
- tissue uptake dose at 1 h ([2]; Taconic nude, % ID/org Liver): 0.295 %ID
- tissue uptake dose at 3 h ([2]; Taconic nude, % ID/org Lung): 0.035 %ID
- tissue uptake dose at 1 h ([2]; Taconic nude, % ID/org Muscle): 0.012 %ID
- tissue uptake dose at 3 h ([2]; Taconic nude, % ID/org Muscle): 0.002 %ID
- tissue uptake dose at 1 h ([2]; Taconic nude, % ID/org Scapula): 0.095 %ID
- tissue uptake dose at 1 h [2, 4]: 0.586 %ID
- tissue uptake dose at 3 h [2, 4]: 0.059 %ID
- tissue uptake dose at 1 h ([2]; Taconic nude, % ID/org Spleen): 0.02 %ID
- tissue uptake dose at 3 h ([2]; Taconic nude, % ID/org Stomach): 0.01 %ID
- tissue uptake dose at 1 h ([2]; Taconic nude, % ID/org Tumor): 8.03 %ID
- tissue uptake at 1 h ([2]; nude (Taconic), 28 uCi, total radioactivity): 0.114 %ID/g
- tissue uptake at 1 h ([2]; nude (Taconic), 28 uCi, total radioactivity, % ID/g Blood): 0.165 %ID/g
- tissue uptake at 1 h ([2]; nude (Taconic), 28 uCi, total radioactivity, % ID/g Lg. Int.): 0.081 %ID/g
- tissue uptake at 1 h ([2]; nude (Taconic), 28 uCi, total radioactivity, % ID/g Liver): 0.176 %ID/g
- tissue uptake at 1 h [2, 5]: 0.238 %ID/g
- tissue uptake at 3 h [2, 5]: 0.073 %ID/g
- tissue uptake at 1 h ([2]; nude (Taconic), 28 uCi, total radioactivity, % ID/g Scapula, alone, 1 h post injection): 0.107 %ID/g
- tissue uptake at 1 h ([2]; nude (Taconic), 28 uCi, total radioactivity, % ID/g Sm. Int., alone, 1 h post injection): 0.396 %ID/g
- tissue uptake at 1 h ([2]; nude (Taconic), 28 uCi, total radioactivity, % ID/g Spleen, alone, 1 h post injection): 0.21 %ID/g
- tissue uptake at 1 h ([2]; nude (Taconic), 28 uCi, total radioactivity, % ID/g Stomach, alone, 1 h post injection): 0.126 %ID/g
- tissue uptake at 1 h ([2]; nude (Taconic), 28 uCi, total radioactivity, % ID/g Tumor, alone, 1 h post injection): 0.316 %ID/g
- tissue uptake dose at 1 h ([2]; nude (Taconic), 28 uCi, total radioactivity, % ID/org Blood, alone, 1 h post injection): 0.268 %ID
- tissue uptake dose at 1 h ([2]; nude (Taconic), 28 uCi, total radioactivity, % ID/org Kidney, alone, 1 h post injection): 0.499 %ID
- tissue uptake dose at 1 h ([2]; nude (Taconic), 28 uCi, total radioactivity, % ID/org Lg. Int., alone, 1 h post injection): 0.041 %ID
- tissue uptake dose at 1 h ([2]; nude (Taconic), 28 uCi, total radioactivity, % ID/org Liver, alone, 1 h post injection): 0.22 %ID
- tissue uptake dose at 1 h ([2]; nude (Taconic), 28 uCi, total radioactivity, % ID/org Lung, alone, 1 h post injection): 0.033 %ID
- tissue uptake dose at 1 h ([2]; nude (Taconic), 28 uCi, total radioactivity, % ID/org Scapula, alone, 1 h post injection): 0.006 %ID
- tissue uptake dose at 1 h ([2]; nude (Taconic), 28 uCi, total radioactivity, % ID/org Sm. Int., alone, 1 h post injection): 0.353 %ID
- tissue uptake dose at 1 h ([2]; nude (Taconic), 28 uCi, total radioactivity, % ID/org Spleen, alone, 1 h post injection): 0.018 %ID
- tissue uptake dose at 1 h ([2]; nude (Taconic), 28 uCi, total radioactivity, % ID/org Stomach, alone, 1 h post injection): 0.057 %ID
- tissue uptake dose at 1 h ([2]; nude (Taconic), 28 uCi, total radioactivity, % ID/org Tumor, alone, 1 h post injection): 0.081 %ID
- tissue uptake at 3 h ([2]; nude (Taconic), total radioactivity, % ID/g Kidney): 2.22 %ID/g
- tissue uptake at 3 h ([2]; nude (Taconic), total radioactivity, % ID/g Liver): 0.142 %ID/g
- tissue uptake at 3 h ([2]; nude (Taconic), total radioactivity, % ID/g Scapula): 0.058 %ID/g
- tissue uptake at 3 h ([2]; nude (Taconic), total radioactivity, % ID/g Spleen): 0.138 %ID/g
- tissue uptake dose at 3 h ([2]; nude (Taconic), total radioactivity, % ID/org Kidney): 0.319 %ID
- tissue uptake dose at 3 h ([2]; nude (Taconic), total radioactivity, % ID/org Liver): 0.178 %ID
- tissue uptake dose at 3 h ([2]; nude (Taconic), total radioactivity, % ID/org Scapula): 0.008 %ID
- tissue uptake dose at 3 h ([2]; nude (Taconic), total radioactivity, % ID/org Spleen): 0.011 %ID
- tissue uptake dose at 3 h ([2]; nude (Taconic), total radioactivity, % ID/org Tumor): 8.13 %ID
- tissue uptake at 3 h ([2]; nude, 28 uCi, total radioactivity, % ID/g Lg. Int.): 0.713 %ID/g
- tissue uptake at 3 h ([2]; nude, 28 uCi, total radioactivity, % ID/g Liver): 0.095 %ID/g
- tissue uptake at 3 h ([2]; nude, 28 uCi, total radioactivity, % ID/g Muscle): 0.013 %ID/g
- tissue uptake at 3 h ([2]; nude, 28 uCi, total radioactivity, % ID/g Sm. Int., alone, 3 h post injection): 0.137 %ID/g

— patent publication US20160199524A1, “RADIOSENSITIVITY OF FLUOROPHORES AND USE OF RADIOPROTECTIVE AGENTS FOR DUAL-MODALITY IMAGING” (Immunomedics, Inc., priority 2015, published 2016)
